Measured values from publication PMC6768028, “Synthesis, SAR and in vitro therapeutic potentials of thiazolidine-2,4-diones” (Chemistry Central Journal, 2018).
≈ marks a conversion by molar mass, not a printed value. Like-named read-outs stand apart in the source and are kept apart here.

Columns and labels:
[1] = tested on: α-amylase enzyme (diastase); test: Antidiabetic activity: α-amylase inhibitory activity using diastase, colorimetric method; type: biochemical; details: for IC50 (antidiabetic activity, α-amylase): calculated via graph of % inhibition
Protocol: All the synthesized compounds were evaluated against α-amylase inhibitory activity by using diastase based on colorimetric method. 0.25 g of soluble potato starch was dissolved in 50 ml of 20 mM phosphate buffer by heating for 15 min. 1 mg diastase (amylase enzyme) was mixed in 100 ml of 20 mM phosphate buffer (pH 6.9) to obtain the enzyme solution. Different concentrations of all the synthesized derivatives were prepared by dissolving them in DMSO. […] 1 ml of enzyme solution was mixed with 1 ml of each synthesized derivatives and incubated for 10 min at 25 °C. Then 1 ml of this mixture was mixed with 1 ml of soluble potato starch solution in a tube and incubated for 10 min at 25 °C. Then tubes were closed after adding 1 ml of color reagent and placed into water bath for 15 min at 85 °C. The reaction mixture was removed from water bath after 15 min. After cooling, the reaction mixture was diluted with 9 ml of distilled water and the absorbance was taken at 540 nm in UV spectrophotometer. Blank solution was prepared by replacing the enzyme solution with buffer solution and absorbance was taken. Measurement of control was performed in identical manner by replacing the synthesized derivatives in 1 ml of DMSO.
Percentage inhibition of α-amylase enzyme was calculated by using following formula:1 %Inhibition=ABlank-ASample/ABlank×100

[2] = Antioxidant activity: free radical scavenging method by DPPH assay; details: for % inhibition (DPPH), 25 μg/ml / % inhibition (DPPH), 50 μg/ml / % inhibition (DPPH), 75 μg/ml / % inhibition (DPPH), 100 μg/ml: 30 min, 517 nm; for IC50 (antioxidant activity, DPPH): calculated via graph of % inhibition
Protocol: The antioxidant activity of the newly synthesized compounds were evaluated spectrophotometrically using free radical scavenging method by DPPH (2,2-diphenyl-1-picrylhydrazyl) assay. The DPPH is a stable free radical with maximal absorption at 517 nm and is reduced to a corresponding hydrazine when it reacting with hydrogen donors. […] DPPH solution (3 μg/ml) was prepared in methanol and DPPH (in 1:1) solution was used for blank reference. Four dilutions of different concentrations (25, 50, 75 and 100 μg/ml) of each synthesized compound and standard (ascorbic acid) were prepared in the methanol and 1 ml of each concentration was added to 1 ml of DPPH solution. The solution mixture was shaken vigorously and kept in dark place for 30 min at room temperature and absorbance was measured by UV at 517 nm. Percentage inhibition of Free radical DPPH was calculated as follows:1 %Inhibition=ABlank-ASample/ABlank×100 where, ABlank: absorbance of the blank reaction, ASample: absorbance of the test compound.

[3] = tested on: Bacillus subtilis; test: Antimicrobial activity, tube dilution method (MIC); type: cell-based; details: 24 h
Protocol: (§1) The in vitro antimicrobial activity of synthesized compounds was done by tube dilution method against Gram-positive bacteria: Staphylococcus aureus, Bacillus subtilis, Gram-negative bacteria: Escherichia coli, Klebsiella pneumonia, Salmonella typhi and fungal: Candida albicans and Aspergillus niger strains using cefadroxil and fluconazole as standard. Dilutions of test and standard compounds were prepared in double strength nutrient broth for bacterial strains and Sabouraud dextrose broth for fungal strains.

[4] = tested on: Escherichia coli; test: Antimicrobial activity, tube dilution method (MIC); type: cell-based; details: 24 h, read-out: Minimum inhibitory concentration, E. coli, tube dilution, 37 ± 1 °C, 24 h
Protocol: as §1

[5] = tested on: Klebsiella pneumonia; test: Antimicrobial activity, tube dilution method (MIC); type: cell-based; details: Klebsiella pneumoniae, 24 h
Protocol: as §1

[6] = tested on: Salmonella typhi; test: Antimicrobial activity, tube dilution method (MIC); type: cell-based; details: Salmonella enterica, TYPHI, 24 h, read-out: Minimum inhibitory concentration, S. typhi
Protocol: as §1

[7] = tested on: Staphylococcus aureus; test: Antimicrobial activity, tube dilution method (MIC); type: cell-based; details: 24 h, read-out: Minimum inhibitory concentration, S. aureus, tube dilution, 37 ± 1 °C, 24 h
Protocol: as §1

[8] = tested on: Aspergillus niger; test: Antifungal activity, tube dilution method (MIC); type: cell-based; details: 168 h, read-out: Minimum inhibitory concentration, A. niger, tube dilution, 25 ± 1 °C, 7 days
Protocol: as §1

[9] = tested on: Candida albicans; test: Antifungal activity, tube dilution method (MIC); type: cell-based; details: 48 h, read-out: Minimum inhibitory concentration, C. albicans, tube dilution, 37 ± 1 °C, 48 h
Protocol: as §1

[10] = read-out: Minimum inhibitory concentration, B. subtilis, tube dilution, 37 ± 1 °C, 24 h
[11] = read-out: Minimum inhibitory concentration, K. pneumonia, tube dilution, 37 ± 1 °C, 24 h

| SMILES | % inhibition (α-amylase), 25 μg/ml [1] [%] | % inhibition (α-amylase), 50 μg/ml [1] [%] | % inhibition (α-amylase), 75 μg/ml [1] [%] | % inhibition (α-amylase), 100 μg/ml [1] [%] | % inhibition (DPPH), 25 μg/ml [2] [%] | % inhibition (DPPH), 50 μg/ml [2] [%] | % inhibition (DPPH), 75 μg/ml [2] [%] | % inhibition (DPPH), 100 μg/ml [2] [%] | IC50 (antioxidant activity, DPPH) [2] [µg/mL] | MIC ([3]; tube dilution, 37 ± 1 °C, read-out: Minimum inhibitory concentration, B. subtilis) [mM] | MIC [4] [mM] | MIC ([5]; tube dilution, 37 ± 1 °C, read-out: Minimum inhibitory concentration, K. pneumonia) [mM] | MIC [6] [mM] | MIC [7] [mM] | MIC [3, 10] [mM] | MIC [5, 11] [mM] | MIC [8] [mM] | MIC [9] [mM] | IC50 (antidiabetic activity, α-amylase) [1] [µg/mL] |
| --- | --- | --- | --- | --- | --- | --- | --- | --- | --- | --- | --- | --- | --- | --- | --- | --- | --- | --- | --- |
| C[C@H]1O[C@H](O[C@H]2[C@H](O)[C@@H](O)[C@@H](O[C@H]3[C@H](O)[C@@H](O)C(O)O[C@@H]3CO)O[C@@H]2CO)[C@H](O)[C@@H](O)[C@@H]1N[C@H]1C=C(CO)[C@@H](O)[C@H](O)[C@H]1O (stereo partly shown) [Acarabose, Acarbose, reference compound] | 37.35 | 53.45 | 73.25 | 88.57 |  |  |  |  |  |  |  |  |  |  |  |  |  |  |  |
| O=C1O[C@H]([C@@H](O)CO)C(O)=C1O [Ascorbic acid, ascorbic acid, reference compound] |  |  |  |  | 38.99 | 55.78 | 72.51 | 93.15 | 21.64 (≈ 123 µM) |  |  |  |  |  |  |  |  |  |  |
| CC1=C(C(=O)O)N2C(=O)[C@@H](NC(=O)[C@H](N)c3ccc(O)cc3)[C@H]2SC1 [Cefadroxil, cefadroxil, reference compound] |  |  |  |  |  |  |  |  |  | 3.4 (≈ 1240 µg/mL) | 1.71 (≈ 621 µg/mL) | 3.4 (≈ 1240 µg/mL) | 1.71 (≈ 621 µg/mL) | 1.71 (≈ 621 µg/mL) |  |  |  |  |  |
| O=C1NC(=O)C(=Cc2ccc([N+](=O)[O-])cc2)S1 [Compound 1, 5-(4-Nitrobenzylidene)thiazolidine-2,4-dione] | 22.65 | 35.79 | 55.52 | 88.68 | 32.64 | 40.22 | 73.41 | 84.81 | 36.35 (≈ 145 µM) |  | 4.9 (≈ 1230 µg/mL) |  | 4.9 (≈ 1230 µg/mL) | 4.9 (≈ 1230 µg/mL) | 9.9 (≈ 2480 µg/mL) | 9.9 (≈ 2480 µg/mL) | 4.9 (≈ 1230 µg/mL) | 4.9 (≈ 1230 µg/mL) | 54.35 (≈ 217 µM) |
| O=C1NC(=O)C(=Cc2ccc(Cl)cc2Cl)S1 [Compound 3, 5-(2,4-Dichlorobenzylidene)thiazolidine-2,4-dione] | 29.45 | 47.98 | 60.83 | 95.79 | 35.89 | 42.67 | 70.25 | 85.44 | 29.04 (≈ 106 µM) |  | 9.12 (≈ 2500 µg/mL) |  | 4.5 (≈ 1230 µg/mL) | 4.5 (≈ 1230 µg/mL) | 4.5 (≈ 1230 µg/mL) | 9.12 (≈ 2500 µg/mL) | 4.5 (≈ 1230 µg/mL) | 4.5 (≈ 1230 µg/mL) | 43.45 (≈ 159 µM) |
| O=C1NC(=O)C(=Cc2ccccc2[N+](=O)[O-])S1 [Compound 4, 5-(2-Nitrobenzylidene)thiazolidine-2,4-dione] | 31.26 | 40.65 | 63.93 | 92.61 | 29.45 | 45.75 | 79.74 | 83.10 | 36.17 (≈ 145 µM) |  |  |  | 4.99 (≈ 1250 µg/mL) | 4.99 (≈ 1250 µg/mL) | 9.9 (≈ 2480 µg/mL) | 9.9 (≈ 2480 µg/mL) | 4.99 (≈ 1250 µg/mL) | 4.99 (≈ 1250 µg/mL) | 43.63 (≈ 174 µM) |
